Source: PMC11079024, “Identification of a family of species-selective complex I inhibitors as potential anthelmintics” (Nature Communications, 2024)
pIC50: −log10 of the molar value. Where two headings read alike, the source gives them in different places.

Columns and labels:
[1] = test system: L1 wild-type C. elegans; details: for Screen "Hit": 50 μM
[2] = test system: L1 wild-type C. elegans; assay: microbe, parasite or virus in culture; details: Caenorhabditis elegans, read-out: C. elegans KCN Survival Assay LC50, estimated from fitted dose-response curves; mean of at least two biological replicates
[3] = molecular target: C. elegans (N2) complex I (NADH:ubiquinone oxidoreductase) (Caenorhabditis elegans, UniProt P24887+Q93873+Q94360); assay: biochemical; type: biochemical; details: for activity at 0.0001 µM / activity at 0.0005 µM / activity at 0.001 µM / activity at 0.0025 µM / activity at 0.005 µM / activity at 0.013 µM / activity at 0.025 µM / activity at 0.063 µM / activity at 0.125 µM / activity at 0.313 µM / activity at 0.625 µM / activity at 1.5 µM / activity at 3 µM / activity at 15 µM / activity at 37.5 µM / activity at 75 µM: read-out: C. elegans mitochondrial complex I activity; for Log IC50 C. elegans complex I: log10 of IC50 in µM, C. elegans mitochondria
In short: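 Activity expressed as percent of solvent control. Complex I rate came from DCIP reduction at 600 nm (initial linear slope, 15 min) with NADH and decylubiquinone as substrates, plus antimycin A and KCN, in pH 7.5 KPi/BSA buffer. Isolated, thrice freeze-thawed mitochondria used at 0.2 mg/mL.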

[4] = hit = relative motility below 0.25 3 hours after removal of KCN
[5] = Dose 0.2 µM, mean of at least three biological replicates
[6] = in vitro complex I dose response on C. elegans mitochondria, average of at least two biological replicates, fit in R (DRC), read-out: IC50 C. elegans complex I
[7] = wild-type C. elegans mitochondria, estimated from fitted dose-response curves, read-out: C. elegans Complex I IC50
[8] = KCN survival assay, hit = relative motility below 0.25
[9] = wild-type (N2) mitochondria, read-out: C. elegans Complex I IC50
[10] = wild-type C. elegans, individual Rep1-Rep4, read-out: percent in vitro complex I activity relative to solvent control, single replicates
[11] = wild-type C. elegans, mean of Rep1-4, read-out: percent in vitro complex I activity relative to solvent control, Mean

C. elegans (N2) complex I (NADH:ubiquinone oxidoreductase), sequence (Q94360 17-199): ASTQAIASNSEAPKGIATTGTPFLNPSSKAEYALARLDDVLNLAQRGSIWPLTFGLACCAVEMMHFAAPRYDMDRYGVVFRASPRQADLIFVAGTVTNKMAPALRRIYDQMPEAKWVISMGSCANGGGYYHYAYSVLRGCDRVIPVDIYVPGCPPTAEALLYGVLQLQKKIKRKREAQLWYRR
C. elegans (N2) complex I (NADH:ubiquinone oxidoreductase), sequence (P24887 whole entry): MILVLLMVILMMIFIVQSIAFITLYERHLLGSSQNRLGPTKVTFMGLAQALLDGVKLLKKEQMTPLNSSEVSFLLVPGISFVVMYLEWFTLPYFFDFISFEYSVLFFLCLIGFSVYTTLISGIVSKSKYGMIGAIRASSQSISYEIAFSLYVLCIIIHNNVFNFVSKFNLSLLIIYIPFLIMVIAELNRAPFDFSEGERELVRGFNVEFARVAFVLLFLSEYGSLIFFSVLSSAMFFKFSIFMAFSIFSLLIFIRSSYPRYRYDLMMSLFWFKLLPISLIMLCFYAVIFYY
C. elegans (N2) complex I (NADH:ubiquinone oxidoreductase), sequence (Q93873 31-482): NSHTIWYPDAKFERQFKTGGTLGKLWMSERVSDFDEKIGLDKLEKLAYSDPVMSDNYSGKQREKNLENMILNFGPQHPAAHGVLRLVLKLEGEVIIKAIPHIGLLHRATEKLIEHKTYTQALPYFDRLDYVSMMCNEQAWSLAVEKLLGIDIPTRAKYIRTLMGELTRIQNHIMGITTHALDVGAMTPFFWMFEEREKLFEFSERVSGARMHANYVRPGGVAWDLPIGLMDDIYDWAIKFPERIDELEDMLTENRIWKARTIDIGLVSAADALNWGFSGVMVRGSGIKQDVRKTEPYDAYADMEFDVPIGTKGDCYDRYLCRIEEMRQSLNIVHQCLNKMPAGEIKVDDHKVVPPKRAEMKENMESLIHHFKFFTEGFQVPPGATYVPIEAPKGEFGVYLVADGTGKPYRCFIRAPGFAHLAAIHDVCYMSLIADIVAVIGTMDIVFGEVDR

Cc1cccc(OCCn2c(C)nc3ccccc32)c1 [Compound 6285199]
Screen "Hit" [1, 4]: Y (hits were identified as compounds that reduced relative motility below 0.25 (75% reduction)) | C. elegans KCN Survival [1, 5]: 1.002 | C. elegans KCN Survival ([1]; Dose 0.39 µM): 1.011 | C. elegans KCN Survival ([1]; Dose 1.56 µM): 0.994 | C. elegans KCN Survival ([1]; Dose 3.13 µM): 1.093 | C. elegans KCN Survival ([1]; Dose 6.25 µM): 0.980 | C. elegans KCN Survival ([1]; Dose 12.5 µM): 0.810 | C. elegans KCN Survival ([1]; Dose 25 µM): 0.165 | C. elegans KCN Survival ([1]; Dose 50 µM): 0.143 | C. elegans KCN Survival ([1]; Dose 100 µM): 0.167 | LC50 [2]: 14.7 µM | activity at 0.0001 µM [3]: 94.3% | activity at 0.0005 µM [3]: 99.3% | activity at 0.001 µM [3]: 86.9% | activity at 0.0025 µM [3]: 85.8% | activity at 0.005 µM [3]: 87.6% | activity at 0.013 µM [3]: 90.6% | activity at 0.025 µM [3]: 92.4% | activity at 0.063 µM [3]: 78.1% | activity at 0.125 µM [3]: 81.6% | activity at 0.313 µM [3]: 54.6% | activity at 0.625 µM [3]: 53.7% | activity at 1.5 µM [3]: 35.3% | activity at 3 µM [3]: 23.4% | activity at 15 µM [3]: 3.64% | activity at 37.5 µM [3]: 1.37% | activity at 75 µM [3]: 1.88% | pIC50 [3, 6]: 6.08 | Log IC50 C. elegans complex I [3]: -0.0757 µM | pIC50 [3, 7]: 6.08

Clc1ccc(SCCCCn2cnc3ccccc32)cc1 [Compound 7925515]
Screen "Hit" [1, 8]: Y (hits were identified as compounds that reduced relative motility below 0.25 (75% reduction)) | C. elegans KCN Survival [1, 5]: 0.966 | C. elegans KCN Survival ([1]; Dose 0.39 µM): 1.005 | C. elegans KCN Survival ([1]; Dose 1.56 µM): 0.967 | C. elegans KCN Survival ([1]; Dose 3.13 µM): 0.917 | C. elegans KCN Survival ([1]; Dose 6.25 µM): 0.704 | C. elegans KCN Survival ([1]; Dose 12.5 µM): 0.109 | C. elegans KCN Survival ([1]; Dose 25 µM): 0.129 | C. elegans KCN Survival ([1]; Dose 50 µM): 0.146 | C. elegans KCN Survival ([1]; Dose 100 µM): 0.182 | LC50 [2]: 6.74 µM | activity at 0.0001 µM [3]: 90.8% | activity at 0.0005 µM [3]: 89.5% | activity at 0.001 µM [3]: 93.5% | activity at 0.0025 µM [3]: 93.3% | activity at 0.005 µM [3]: 91% | activity at 0.013 µM [3]: 90.5% | activity at 0.025 µM [3]: 86.2% | activity at 0.063 µM [3]: 83.9% | activity at 0.125 µM [3]: 76.1% | activity at 0.313 µM [3]: 69.1% | activity at 0.625 µM [3]: 60.1% | activity at 1.5 µM [3]: 39.1% | activity at 3 µM [3]: 22% | activity at 15 µM [3]: 10.5% | activity at 37.5 µM [3]: 7.84% | activity at 75 µM [3]: 5.86% | pIC50 [3, 6]: 6.02 | Log IC50 C. elegans complex I [3]: -0.0223 µM | pIC50 [3, 9]: 6.02 | pIC50 [3, 7]: 6.02

Cc1ccc(C(C)C)c(OCC(O)Cn2cnc3ccccc32)c1 (centres unmarked) [Compound 6093301]
Screen "Hit" [1, 4]: Y (hits were identified as compounds that reduced relative motility below 0.25 (75% reduction)) | C. elegans KCN Survival [1, 5]: 1.001 | C. elegans KCN Survival ([1]; Dose 0.39 µM): 1.016 | C. elegans KCN Survival ([1]; Dose 1.56 µM): 1.025 | C. elegans KCN Survival ([1]; Dose 3.13 µM): 0.981 | C. elegans KCN Survival ([1]; Dose 6.25 µM): 0.940 | C. elegans KCN Survival ([1]; Dose 12.5 µM): 0.855 | C. elegans KCN Survival ([1]; Dose 25 µM): 0.337 | C. elegans KCN Survival ([1]; Dose 50 µM): 0.161 | C. elegans KCN Survival ([1]; Dose 100 µM): 0.196 | LC50 [2]: 19.8 µM | activity at 0.0001 µM [3]: 99.6% | activity at 0.0005 µM [3]: 97.6% | activity at 0.001 µM [3]: 98.6% | activity at 0.0025 µM [3]: 105% | activity at 0.005 µM [3]: 96.1% | activity at 0.013 µM [3]: 93.6% | activity at 0.025 µM [3]: 90.6% | activity at 0.063 µM [3]: 81.2% | activity at 0.125 µM [3]: 72.6% | activity at 0.313 µM [3]: 50.3% | activity at 0.625 µM [3]: 38.5% | activity at 1.5 µM [3]: 20.3% | activity at 3 µM [3]: 11.5% | activity at 15 µM [3]: 1.13% | activity at 37.5 µM [3]: 0% | activity at 75 µM [3]: 0% | pIC50 [3, 6]: 6.44 | Log IC50 C. elegans complex I [3]: -0.44 µM | pIC50 [3, 7]: 6.44

Cc1ccc(Cn2c(C(C)C)nc3ccccc32)cc1 [Compound 6586153]
Screen "Hit" [1, 8]: Y (hits were identified as compounds that reduced relative motility below 0.25 (75% reduction)) | LC50 [2]: 24.9 µM | pIC50 [3, 6]: 5.03 | Log IC50 C. elegans complex I [3]: 0.97 µM | pIC50 [3, 9]: 5.03 | pIC50 ([3]; wild-type C. elegans mitochondria, read-out: C. elegans Complex I IC50): 5.03

Clc1ccccc1OCCCCn1cnc2ccccc21 [Compound 7925804]
Screen "Hit" [1, 8]: Y (hits were identified as compounds that reduced relative motility below 0.25 (75% reduction)) | C. elegans KCN Survival [1, 5]: 1.043 | C. elegans KCN Survival ([1]; Dose 0.39 µM): 1.064 | C. elegans KCN Survival ([1]; Dose 1.56 µM): 1.052 | C. elegans KCN Survival ([1]; Dose 3.13 µM): 1.018 | C. elegans KCN Survival ([1]; Dose 6.25 µM): 0.644 | C. elegans KCN Survival ([1]; Dose 12.5 µM): 0.155 | C. elegans KCN Survival ([1]; Dose 25 µM): 0.142 | C. elegans KCN Survival ([1]; Dose 50 µM): 0.136 | C. elegans KCN Survival ([1]; Dose 100 µM): 0.181 | LC50 [2]: 6.97 µM | remaining activity at 0.0001 µM [3, 10]: 106% | remaining activity at 0.0001 µM [3, 11]: 95.7% | remaining activity at 0.0005 µM [3, 10]: 98.1% | remaining activity at 0.0005 µM [3, 11]: 95.4% | remaining activity at 0.001 µM ([3]; 0.001 µM, wild-type C. elegans, mean of Rep1-4, read-out: percent in vitro complex I activity relative to solvent control, Mean): 95.9% | remaining activity at 0.0025 µM [3, 10]: 100% | remaining activity at 0.0025 µM [3, 11]: 100% | remaining activity at 0.005 µM [3, 10]: 93.7% | remaining activity at 0.005 µM [3, 11]: 93.4% | remaining activity at 0.013 µM [3, 10]: 92.2% | remaining activity at 0.013 µM [3, 11]: 96.2% | remaining activity at 0.025 µM [3, 10]: 86.9% | remaining activity at 0.025 µM [3, 11]: 94.4% | remaining activity at 0.063 µM [3, 10]: 83.6% | remaining activity at 0.063 µM [3, 11]: 81.6% | remaining activity at 0.125 µM [3, 10]: 65.6% | remaining activity at 0.125 µM [3, 11]: 64.9% | remaining activity at 0.313 µM [3, 10]: 53.9% | remaining activity at 0.313 µM [3, 11]: 47.4% | remaining activity at 0.625 µM ([3]; 0.625 µM, wild-type C. elegans, mean of Rep1-4, read-out: percent in vitro complex I activity relative to solvent control, Mean): 32.7% | remaining activity at 1.5 µM ([3]; 1.5 µM, wild-type C. elegans, mean of Rep1-4, read-out: percent in vitro complex I activity relative to solvent control, Mean): 15.5% | remaining activity at 3 µM ([3]; 3 µM, wild-type C. elegans, mean of Rep1-4, read-out: percent in vitro complex I activity relative to solvent control, Mean): 8.88% | remaining activity at 15 µM ([3]; 15 µM, wild-type C. elegans, mean of Rep1-4, read-out: percent in vitro complex I activity relative to solvent control, Mean): 2.59% | remaining activity at 37.5 µM ([3]; 37.5 µM, wild-type C. elegans, mean of Rep1-4, read-out: percent in vitro complex I activity relative to solvent control, Mean): 2.95% | remaining activity at 75 µM ([3]; 75 µM, wild-type C. elegans, mean of Rep1-4, read-out: percent in vitro complex I activity relative to solvent control, Mean): 6.38% | activity at 0.0001 µM [3]: 95.7% | activity at 0.0005 µM [3]: 95.4% | activity at 0.001 µM [3]: 95.9% | activity at 0.0025 µM [3]: 100% | activity at 0.005 µM [3]: 93.4% | activity at 0.013 µM [3]: 96.2% | activity at 0.025 µM [3]: 94.4% | activity at 0.063 µM [3]: 81.6% | activity at 0.125 µM [3]: 64.9% | activity at 0.313 µM [3]: 47.4% | activity at 0.625 µM [3]: 32.7% | activity at 1.5 µM [3]: 15.5% | activity at 3 µM [3]: 8.88% | activity at 15 µM [3]: 2.59% | activity at 37.5 µM [3]: 2.95% | activity at 75 µM [3]: 6.38% | pIC50 [3, 6]: 6.57 | Log IC50 C. elegans complex I [3]: -0.57 µM | pIC50 [3, 7]: 6.57
